Experimental findings from patent US6599924B1, “2-hetaryl-3,4-dihydro-2H-pyrrole derivatives” (Bayer Aktiengesellschaft, priority 1998, dated 2003) are described below.

Assay in the first data set: not given
Details: not given
Take “1-dimethylamino-5-phenylpyrrolidone-2 [G (I′-678)]”: the “logp (pH=7.5)” value amounted to 1.52.

Another data set in a line: log P determination.
Details: not given
The term logP denotes a log measure of how a compound divides between an organic and an aqueous phase. A high value points to higher lipophilicity. The compound `C=CCOc1ccc(C2CCC(c3sccc3Cl)=N2)cc1` (stereo not shown) [Example I-707] displayed a logP of 2.29.
`FC(F)(F)Oc1ccc(Oc2ccc(C3CCC(c4sccc4Cl)=N3)cc2)cc1` (stereo not shown) [Example I-710] showed a logP of 4.5.
Still for that read-out and setting: for `C#CCOc1ccc(C2CCC(c3sccc3Cl)=N2)cc1` (stereo not shown) [Example I-720] the value was 1.97.

The data set is the same for the next values; noted with them: pH 2.3.
On to `FC(F)(F)Oc1ccc(-c2ccc(C3CCC(c4cccs4)=N3)cc2)cc1` (stereo not shown) [Example I-7], for which the logP was 2.45.
On the same count and under the same terms, for `FC(F)(F)Oc1ccc(-c2ccc(C3CCC(c4ccc(Cl)s4)=N3)cc2)cc1` (stereo not shown) [Example I-148] the value was 4.21; for `FC(F)(F)Oc1ccc(-c2ccc(C3CCC(c4sccc4Cl)=N3)cc2)cc1` (stereo not shown) [Example I-195], 4.67; for `FC(F)(F)Oc1ccc(-c2ccc(C3CCC(c4ncccc4C(F)(F)F)=N3)cc2)cc1` (stereo not shown) [Example I-336], 5.06.
In the case of `FC(F)(F)Oc1ccc(-c2ccc(C3CCC(c4ccsc4)=N3)cc2)cc1` (stereo not shown) [Example I-430], the logP was determined as 2.44.
On the same count and under the same terms, for `FC(F)(F)Oc1ccc(-c2ccc(C3CCC(c4ccc(Br)s4)=N3)cc2)cc1` (stereo not shown) [Example I-618] the value was 4.73.
Regarding `FC(F)(F)Oc1ccc(Oc2ccc(C3CCC(c4sccc4Cl)=N3)cc2)cc1` (stereo not shown) [Example I-708, 2-(5-(4-Trifluoromethoxyphenoxy-phenyl)-Δ^2-pyrrolin-2-yl)-3-chlorothiophene], the logP is 4.5.
With `Fc1ccsc1C1=NC(c2ccc(-c3ccc(OC(F)(F)F)cc3)cc2)CC1` (stereo not shown) [Example I-868, 5-(3-fluorothien-2-yl)-3,4-dihydro-2-[4′-trifluoromethoxy]-[1,1′-biphenyl]-4-yl-2H-pyrrole], the logP came out at 3.18.
Still for that read-out and setting: for `CC(C)(C)OC(=O)NC(CCC(=O)c1sccc1F)c1ccc(-c2ccc(OC(F)(F)F)cc2)cc1` (stereo not shown) [II-868] the value was 5.05.

Another data set can be described thus: physchem. Particulars: pH 7.5.
`c1ccc(C2CCC(c3cccnc3)=N2)cc1` (stereo not shown) [Example I-678] showed a lipophilicity (logP) of 2.01.

Assay in a further data set: not given
Details: not given
The source holds these as a separate data set.
The term melting point denotes the temperature of the solid-liquid transition. The compound `Oc1ccc(C2CCC(c3sccc3Cl)=N2)cc1` (stereo not shown) [Example I-706, 2-(5-(4-Hydroxyphenyl)-Δ^2-pyrrolin-2-yl)-3-chlorothiophene] yielded a melting point of 146 °C.
The compound `CC(C)(C)c1ccc(COc2ccc(C3CCC(c4sccc4Cl)=N3)cc2)cc1` (stereo not shown) [Example I-718, 3-Chloro-2-[5-(4-(4-tert-butylbenzyloxy)-phenyl)-Δ^2-pyrrolin-2-yl]-thiophene] came in with a melting point of 102 °C.
